The source of these data is publication PMC9841533, “Microtubule-Stabilizing 1,2,4-Triazolo[1,5-a]pyrimidines as Candidate Therapeutics for Neurodegenerative Disease: Matched Molecular Pair Analyses and Computational Studies Reveal New Structure–Activity Insights” (Journal of Medicinal Chemistry, 2022).

Where two headings read alike, the source gives them in different places.

Experiment [1] concerns acetylated α-tubulin (AcTub) levels in QBI293 cells. The experiment can be described thus: QBI293 cell assay of MT stabilization: acetylated α-tubulin ELISA. The experiment is classed as cell-based. The protocol: (§1) All test compounds were initially screened in the same cell-based (QBI293) assay of MT stabilization used in our previous SAR studies[11],[12] so as to allow direct comparison with literature data. Changes in levels of acetylated α-tubulin (AcTub) and total α-tubulin (α-Tub), relative to vehicle-treated negative control cells, were determined after 4 h of incubation with test compounds at 1 and 10 μM. To account for possible day-to-day differences in the responsiveness of cells to MT-stabilizing treatment, compound-dependent changes in AcTub levels relative to DMSO-treated cells were also normalized to the corresponding changes caused by 100 nM of 5 that was used as a positive control. In addition, docking studies, binding free energy calculations, and in selected cases, molecular dynamic simulations were conducted using an X-ray structure of the vinca and seventh sites (PDB: 5NJH,[10]7CLD[13]). […] For selected compounds, additional studies included testing in the QBI293 cell AcTub assay at additional compound concentrations, and/or evaluation of test compounds for their ability to prevent MT collapse in primary neuron cultures treated with the phosphatase inhibitor, okadaic […] (OA). Finally, cytotoxicity studies in QBI293 and HeLa cells were also conducted for representative examples (Supporting Information).
(§2) Compound-induced changes in acetylated-tubulin and α-tubulin in QBI293 cells or primary mouse or rat neurons were as previously described.[11],[12] […] The plated cells were incubated overnight, after which the medium was aspirated and fresh medium containing vehicle (0.25–0.3% DMSO) or test compound was added. Test compounds were prepared as 4–20 mM stock solutions in 100% DMSO, and these were diluted in culture medium prior to addition to the QBI293 cells. After 4 h incubation, whole-cell extracts were prepared from the QBI293 cells as described[11] and the supernatant fraction from each sample was assessed for protein content by bicinchoninic acid (BCA) assay. The amount of acetyl-tubulin (AcTub) and α-tubulin (αTub) within the cell extract samples was quantified using specific enzyme-linked immunosorbent assays (ELISA), as previously described.[11] Acetyl-tubulin levels were determined in a similar manner in rat or mouse cortical neuron cultures in which embryonic dissociated cortical neurons were plated at 3 × 10^5 cells/well in poly-D-lysine-coated 12-well plates, essentially as previously described.[11] […] Culture homogenates were prepared for the determination of AcTub levels by ELISA as previously described.[11]
On the technique in general: An ELISA detects its analyte on a solid surface through an enzyme-linked reagent.

In experiment [2] the test system is total α-tubulin (α-Tub) levels in QBI293 cells. The experiment can be described thus: QBI293 cell assay: total α-tubulin ELISA. The experiment is classed as cell-based. The procedure:
as §1, §2

The mark [3] stands for this setting: 4 h, 1 uM compound, read-out: AcTub (1uM).
Setting [4] is: 4 h, 10 uM compound, read-out: AcTub (10 uM).
[5] abbreviates: 4 h incubation, 1 μM, read-out: AcTub 1 μM, fold-change compared to vehicle (DMSO)-treated cells.
The mark [6] stands for this setting: 4 h incubation, 10 μM, read-out: AcTub 10 μM, fold-change compared to vehicle (DMSO)-treated cells.
The mark [7] stands for this setting: 4 h, 1 uM compound, read-out: AlfaTub (1uM).
Where [8] appears, read: 4 h, 10 uM compound, read-out: AlfaTub (10 uM).
Setting [9] is: 4 h incubation, 1 μM, read-out: α-Tub 1 μM, fold-change compared to vehicle (DMSO)-treated cells.
Setting [10] is: 4 h incubation, 10 μM, read-out: α-Tub 10 μM, fold-change compared to vehicle (DMSO)-treated cells.

Regarding `C[C@H](Nc1c(-c2c(F)cc(C#CCCO)cc2F)c(Cl)nc2ncnn12)C(F)(F)F` [Compound 42, (S)-4-(4-(5-Chloro-7-((1,1,1-trifluoropropan-2-yl)amino)-[1,2,4]triazolo[1,5-a]pyrimidin-6-yl)-3,5-difluorophenyl)but-3-yn-1-ol], in experiment [1] (1 uM compound), the “AcTub (1 uM - normalized)” value is given as 0.23. Further, in experiment [1] (10 uM compound), the “AcTub (10 uM - normalized)” value is on record as 0.92. The fold induction at 1 µM in experiment [1] (setting [3]) was determined as 1.62; in experiment [1] (setting [5]), 1.62 ± 0.05; in experiment [2] (setting [7]) it was 0.88; in experiment [2] (setting [9]) it was 0.88 ± 0.01. For the same compound, the fold induction at 10 µM was 6.4 in experiment [1] (setting [4]), 6.4 ± 0.32 in experiment [1] (setting [6]), 0.69 in experiment [2] (setting [8]) and 0.69 ± 0.02 in experiment [2] (setting [10]). The “AcTub 1 μM, fold-change compared to positive control compound 5 (100 nM) (in parentheses)” value (“AcTub 1 μM, fold-change” for short) in experiment [1] (4 h incubation, 1 μM) stood at 0.23 fold-change. For the same compound, the “AcTub 10 μM, fold-change compared to positive control compound 5 (100 nM) (in parentheses)” value (“AcTub 10 μM, fold-change” below) in experiment [1] (4 h incubation, 10 μM) is 0.92 fold-change.
Turning to `C[C@H](Nc1c(-c2c(F)cc(F)cc2F)c(Cl)nc2ncnn12)C1CC1` [Compound 16, (S)-5-Chloro-N-(1-cyclopropylethyl)-6-(2,4,6-trifluorophenyl)-[1,2,4]triazolo[1,5-a]pyrimidin-7-amine], the “AcTub (1 uM - normalized)” value in experiment [1] (1 uM compound) is on record as 0.10. For the same compound, in experiment [1] (10 uM compound), the “AcTub (10 uM - normalized)” value turned out to be 0.15. The fold induction at 1 µM turned out to be 0.96 in experiment [1] (setting [3]), 0.96 ± 0.06 in experiment [1] (setting [5]), 0.95 in experiment [2] (setting [7]) and 0.95 ± 0.02 in experiment [2] (setting [9]). The fold induction at 10 µM is 1.56 in experiment [1] (setting [4]), 1.56 ± 0.06 in experiment [1] (setting [6]), 0.97 in experiment [2] (setting [8]) and 0.97 ± 0.02 in experiment [2] (setting [10]). Besides, the “AcTub 1 μM, fold-change” value in experiment [1] (4 h incubation, 1 μM) is reported as 0.10 fold-change. In addition, the “AcTub 10 μM, fold-change” value in experiment [1] (4 h incubation, 10 μM) was 0.15 fold-change.
Consider `Fc1cc(F)c(-c2c(Cl)nc3ncnn3c2NCC2(C(F)(F)F)CC2)c(F)c1` [Compound 14, 5-Chloro-N-((1-(trifluoromethyl)cyclopropyl)methyl)-6-(2,4,6-trifluorophenyl)-[1,2,4]triazolo[1,5-a]pyrimidin-7-amine], for which the “AcTub (1 uM - normalized)” value in experiment [1] (1 uM compound) is listed as 0.22. Besides, the “AcTub (10 uM - normalized)” value in experiment [1] (10 uM compound) amounted to 0.34. In addition, the fold induction at 1 µM in experiment [1] (setting [3]) was found to be 1.3; in experiment [1] (setting [5]), 1.3 ± 0.09; in experiment [2] (setting [7]), 1; in experiment [2] (setting [9]) it was 1 ± 0.04. In addition, the fold induction at 10 µM in experiment [1] (setting [4]) worked out at 2; in experiment [1] (setting [6]) it was 2 ± 0.36; in experiment [2] (setting [8]) it was 0.97; in experiment [2] (setting [10]), 0.97 ± 0.09. Also, the “AcTub 1 μM, fold-change” value in experiment [1] (4 h incubation, 1 μM) worked out at 0.22 fold-change. In experiment [1] (4 h incubation, 10 μM), the “AcTub 10 μM, fold-change” value was 0.34 fold-change.
Turning to `CN(C)CCCOc1cc(F)c(-c2c(Cl)nc3ncnn3c2NCC2(C(F)(F)F)CC2)c(F)c1` [Compound 29, 5-Chloro-6-(4-(3-(dimethylamino)propoxy)-2,6-difluorophenyl)-N-((1-(trifluoromethyl)cyclopropyl)methyl)-[1,2,4]triazolo[1,5-a]pyrimidin-7-amine], the “AcTub (1 uM - normalized)” value in experiment [1] (1 uM compound) was 0.63. The “AcTub (10 uM - normalized)” value in experiment [1] (10 uM compound) is reported as 0.14. The fold induction at 1 µM in experiment [1] (setting [3]) stood at 3.75; in experiment [1] (setting [5]), 3.75 ± 0.13; in experiment [2] (setting [7]), 0.82; in experiment [2] (setting [9]) it was 0.82 ± 0.01. The fold induction at 10 µM is 0.81 in experiment [1] (setting [4]), 0.81 ± 0.09 in experiment [1] (setting [6]), 1.24 in experiment [2] (setting [8]) and 1.24 ± 0.13 in experiment [2] (setting [10]). Further, in experiment [1] (4 h incubation, 1 μM), the “AcTub 1 μM, fold-change” value came out at 0.63 fold-change. For the same compound, the “AcTub 10 μM, fold-change” value in experiment [1] (4 h incubation, 10 μM) is listed as 0.14 fold-change.
As for `CN(C)CCCOc1cc(F)c(-c2c(Cl)nc3ncnn3c2NCC2(C)CC2)c(F)c1` [Compound 28, 5-Chloro-6-(4-(3-(dimethylamino)propoxy)-2,6-difluorophenyl)-N-((1-methylcyclopropyl)methyl)-[1,2,4]triazolo[1,5-a]pyrimidin-7-amine], the “AcTub (1 uM - normalized)” value in experiment [1] (1 uM compound) came to 0.53. The “AcTub (10 uM - normalized)” value in experiment [1] (10 uM compound) was 0.09. Moreover, the fold induction at 1 µM in experiment [1] (setting [3]) was 2.81; in experiment [1] (setting [5]) it was 2.81 ± 0.35; in experiment [2] (setting [7]), 0.84; in experiment [2] (setting [9]), 0.84 ± 0.12. Moreover, the fold induction at 10 µM in experiment [1] (setting [4]) is 0.49; in experiment [1] (setting [6]), 0.49 ± 0.03; in experiment [2] (setting [8]), 1.1; in experiment [2] (setting [10]), 1.1 ± 0.2. Moreover, the “AcTub 1 μM, fold-change” value in experiment [1] (4 h incubation, 1 μM) is given as 0.53 fold-change. Further, the “AcTub 10 μM, fold-change” value in experiment [1] (4 h incubation, 10 μM) was 0.09 fold-change.
In the case of `CC(C)[C@@H](C)Nc1c(-c2c(F)cc(C#CCN(C)C)cc2F)c(Cl)nc2ncnn12` [Compound 47, (R)-5-Chloro-6-(4-(3-(dimethylamino)prop-1-yn-1-yl)-2,6-difluorophenyl)-N-(3-methylbutan-2-yl)-[1,2,4]triazolo[1,5-a]pyrimidin-7-amine], the “AcTub (1 uM - normalized)” value in experiment [1] (1 uM compound) is listed as 0.40. Moreover, the “AcTub (10 uM - normalized)” value in experiment [1] (10 uM compound) was found to be 1.4. The fold induction at 1 µM was 2.21 in experiment [1] (setting [3]), 2.21 ± 0.6 in experiment [1] (setting [5]), 0.98 in experiment [2] (setting [7]) and 0.98 ± 0.04 in experiment [2] (setting [9]). The fold induction at 10 µM in experiment [1] (setting [4]) is 7.7; in experiment [1] (setting [6]), 7.68 ± 0.85; in experiment [2] (setting [8]) it was 1.03; in experiment [2] (setting [10]), 1.03 ± 0.04. Also, the “AcTub 1 μM, fold-change” value in experiment [1] (4 h incubation, 1 μM) came to 0.40 fold-change. The “AcTub 10 μM, fold-change” value in experiment [1] (4 h incubation, 10 μM) was 1.40 fold-change.
On to `CC(C)[C@@H](C)Nc1c(-c2c(F)cc(C#CCCN(C)C)cc2F)c(Cl)nc2ncnn12` [Compound 52, (R)-5-Chloro-6-(4-(4-(dimethylamino)but-1-yn-1-yl)-2,6-difluorophenyl)-N-(3-methylbutan-2-yl)-[1,2,4]triazolo[1,5-a]pyrimidin-7-amine 2,2,2-Trifluoroacetate], for which the “AcTub (1 uM - normalized)” value in experiment [1] (1 uM compound) turned out to be 1.75. Further, the “AcTub (10 uM - normalized)” value in experiment [1] (10 uM compound) is 1.24. For the same compound, the fold induction at 1 µM in experiment [1] (setting [3]) was determined as 9.5; in experiment [1] (setting [5]), 9.5 ± 0.22; in experiment [2] (setting [7]), 1; in experiment [2] (setting [9]), 1 ± 0.02. Also, the fold induction at 10 µM in experiment [1] (setting [4]) was 6.7; in experiment [1] (setting [6]), 6.7 ± 0.5; in experiment [2] (setting [8]), 1.15; in experiment [2] (setting [10]) it was 1.15 ± 0.02. In addition, the “AcTub 1 μM, fold-change” value in experiment [1] (4 h incubation, 1 μM) is 1.75 fold-change. For the same compound, in experiment [1] (4 h incubation, 10 μM), the “AcTub 10 μM, fold-change” value came out at 1.24 fold-change.
